These results are taken from patent US20240246964A1 (Arbutus Biopharma Corporation, priority 2021, published 2024).

A value given as a limit tells only on which side of the number the result lay.

Test [1] has as its target human PD-L1 (Homo sapiens (Human), UniProt Q9NZQ7). Description: T cell activation luciferase reporter cell culture system (T Cell Activation Assay). The class given is cell-based. Conditions: luciferase reporter assay; PD-L1 aAPC/CHO-K1 cells with PD-1 effector Jurkat T cells. For orientation: Reporter assays use an easily measured gene product as a stand-in for the process of interest.

Test [2] concerns the target PD-L1 His protein / PD-1 Fc protein (Homo sapiens (Human), UniProt Q9NZQ7). Description: HTRF Assay (PD-1/PD-L1 interaction). Conditions: PD-L1 His 6 nM, PD-1 Fc 6 nM. The class given is binding. (In general: TR-FRET usually uses a lanthanide donor and a delayed reading to cut background.)

PD-L1 His protein / PD-1 Fc protein, sequence (Q9NZQ7 19-238): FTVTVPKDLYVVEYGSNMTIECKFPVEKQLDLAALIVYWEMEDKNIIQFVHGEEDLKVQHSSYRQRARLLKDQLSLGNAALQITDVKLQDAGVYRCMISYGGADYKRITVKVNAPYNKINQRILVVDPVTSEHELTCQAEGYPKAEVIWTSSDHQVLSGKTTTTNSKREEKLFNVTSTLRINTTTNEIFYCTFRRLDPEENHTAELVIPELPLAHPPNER
human PD-L1, sequence (Q9NZQ7 19-290): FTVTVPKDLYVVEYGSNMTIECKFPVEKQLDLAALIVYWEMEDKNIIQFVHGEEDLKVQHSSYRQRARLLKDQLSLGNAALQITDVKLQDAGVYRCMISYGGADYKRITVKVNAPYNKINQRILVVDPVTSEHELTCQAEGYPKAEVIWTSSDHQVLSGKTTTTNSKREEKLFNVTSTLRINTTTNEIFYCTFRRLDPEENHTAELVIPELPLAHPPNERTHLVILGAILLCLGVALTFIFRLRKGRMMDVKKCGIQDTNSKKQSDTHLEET

By EC50 is commonly meant the concentration that produces a half-maximal response. Low values mean higher potency in that assay, high ones lower potency in that assay. The term IC50 denotes the concentration that inhibits the measured activity by half. In test [1], `COc1nc(-c2cccc(-c3ccnc(-c4ccc(CN5CC6(CNC(=O)C6)C5)c(OC(F)F)c4)c3Cl)c2Cl)ccc1CNC1CCOCC1` [Example 683, 2-(4-(3-Chloro-4-(2-chloro-3-(6-methoxy-5-(((tetrahydro-2H-pyran-4-yl)amino)methyl)pyridin-2-yl)phenyl)pyridin-2-yl)-2-(difluoromethoxy)benzyl)-2,6-diazaspiro[3.4]octan-7-one] yielded an EC50 of 25.9 nM. In test [2], this molecule yielded an IC50 of 0.29 nM.

In turn, `COc1nc(-c2cccc(-c3ccnc(-c4ccc(CN5CC6(CNC(=O)C6)C5)c(OC(F)F)c4)c3Cl)c2Cl)ccc1CNC1CCN(C(C)=O)CC1` [Example 684, 2-(4-(4-(3-(5-(((1-Acetylpiperidin-4-yl)amino)methyl)-6-methoxypyridin-2-yl)-2-chlorophenyl)-3-chloropyridin-2-yl)-2-(difluoromethoxy)benzyl)-2,6-diazaspiro[3.4]octan-7-one] gave an EC50 in test [1] of 34.9 nM. The molecule also registered an IC50 in test [2] of 1.8 nM.

Molecule `COc1nc(-c2cccc(-c3ccnc(-c4ccc(CNC5CCOCC5)c(OC(F)F)c4)c3Cl)c2Cl)ccc1CN1CC2(CNC(=O)C2)C1` [Example 685, 2-((6-(2-Chloro-3-(3-chloro-2-(3-(difluoromethoxy)-4-(((tetrahydro-2H-pyran-4-yl)amino)methyl)phenyl)pyridin-4-yl)phenyl)-2-methoxypyridin-3-yl)methyl)-2,6-diazaspiro[3.4]octan-7-one] gave an EC50 in test [1] of 51.7 nM. The same molecule displayed an IC50 in test [2] of 4.22 nM.

`COc1nc(-c2ccnc(-c3cccc4c3CC[C@@H]4Oc3nc(OC)c(CNC[C@@H]4CCC(=O)N4)cc3C(F)(F)F)c2Cl)ccc1CNC1CCOCC1` [Example 686, (S)-5-((((6-(((S)-4-(3′-chloro-6-methoxy-5-(((tetrahydro-2H-pyran-4-yl)amino)methyl)-[2,4′-bipyridin]-2′-yl)-2,3-dihydro-1H-inden-1-yl)oxy)-2-methoxy-5-(trifluoromethyl)pyridin-3-yl)methyl)amino)methyl)pyrrolidin-2-one] gave an EC50 in test [1] of 11.1 nM. The same molecule showed an IC50 in test [2] of 14.8 nM.

Regarding `COCC(=O)N1CC2(CN(Cc3ccc(-c4cccc(-c5ccnc(-c6ccc(CN7CC8(CNC(=O)C8)C7)c(OC)c6)c5Cl)c4Cl)nc3OC)C2)C1` [Example 687, 2-(4-(3-Chloro-4-(2-chloro-3-(6-methoxy-5-((6-(2-methoxyacetyl)-2,6-diazaspiro[3.3]heptan-2-yl)methyl)pyridin-2-yl)phenyl)pyridin-2-yl)-2-methoxybenzyl)-2,6-diazaspiro[3.4]octan-7-one], the EC50 in test [1] came to 26.3 nM. In test [2], the IC50 is 0.08 nM.

As for `COc1nc(-c2cccc(-c3ccnc(-c4ccc(CN5CC6(CNC(=O)C6)C5)c(OC(F)F)c4)c3Cl)c2Cl)ccc1CN1CC2(C1)CN(C(C)=O)C2` [Example 688, 2-(4-(4-(3-(5-((6-Acetyl-2,6-diazaspiro[3.3]heptan-2-yl)methyl)-6-methoxypyridin-2-yl)-2-chlorophenyl)-3-chloropyridin-2-yl)-2-(difluoromethoxy)benzyl)-2,6-diazaspiro[3.4]octan-7-one], the response in test [1] was half-maximal at 17 nM (EC50). For the same molecule, in test [2], the IC50 stood at 1.46 nM.

Regarding `COc1nc(-c2cccc(-c3ccnc(-c4ccc(CNC5CCOCC5)c(OC(F)F)c4)c3Cl)c2Cl)ccc1CN1CC2(C1)CN(C(C)=O)C2` [Example 689, 1-(6-((6-(2-Chloro-3-(3-chloro-2-(3-(difluoromethoxy)-4-(((tetrahydro-2H-pyran-4-yl)amino)methyl)phenyl)pyridin-4-yl)phenyl)-2-methoxypyridin-3-yl)methyl)-2,6-diazaspiro[3.3]heptan-2-yl)ethan-1-one], it took 37.4 nM to reach a half-maximal effect in test [1] (EC50). Besides, in test [2], the IC50 was determined as 3.33 nM.

The molecule `COc1cc(-c2nccc(-c3cccc(-c4ccc(CN5CCC(O)CC5)c(OC)n4)c3Cl)c2Cl)ccc1CN1CC2(CCN(C(C)=O)C2)C1` [Example 693, 1-(2-(4-(3-Chloro-4-(2-chloro-3-(5-((4-hydroxypiperidin-1-yl)methyl)-6-methoxypyridin-2-yl)phenyl)pyridin-2-yl)-2-methoxybenzyl)-2,6-diazaspiro[3.4]octan-6-yl)ethan-1-one] displayed a concentration for a half-maximal effect (EC50) in test [1] of 26.1 nM. Moreover, in test [2], the IC50 is 0.71 nM.

For the molecule `COc1nc(-c2cccc(-c3ccnc(-c4cc5c(OC)nc(CN6CC(C)(O)C6)nn5c4)c3Cl)c2Cl)ccc1CNC[C@@H]1CCC(=O)N1` [Example 697, (S)-5-((((6-(2-Chloro-3-(3-chloro-2-(2-((3-hydroxy-3-methylazetidin-1-yl)methyl)-4-methoxypyrrolo[2,1-f][1,2,4]triazin-6-yl)pyridin-4-yl)phenyl)-2-methoxypyridin-3-yl)methyl)amino)methyl)pyrrolidin-2-one], the 50% effective concentration (EC50) in test [1] came out at 120 nM. The IC50 in test [2] was 6.26 nM.

Molecule `COc1nc(-c2cccc(-c3ccnc(-c4cc(OC)c5nc(CN6CC7(COC7)C6)nn5c4)c3Cl)c2Cl)ccc1CNC1CCN(C(C)=O)CC1` [Example 698, 1-(4-(((6-(3-(2-(2-((2-Oxa-6-azaspiro[3.3]heptan-6-yl)methyl)-8-methoxy-[1,2,4]triazolo[1,5-a]pyridin-6-yl)-3-chloropyridin-4-yl)-2-chlorophenyl)-2-methoxypyridin-3-yl)methyl)amino)piperidin-1-yl)ethan-1-one] displayed an EC50 in test [1] of 261 nM. In test [2], the IC50 was 0.14 nM.

In test [1], `COc1cc(-c2nccc(-c3cccc(NC(=O)c4ccc(CNCCO)cn4)c3C)c2Cl)ccc1CNC1CCOCC1` [Example 703, N-(3-(3-Chloro-2-(3-methoxy-4-(((tetrahydro-2H-pyran-4-yl)amino)methyl)phenyl)pyridin-4-yl)-2-methylphenyl)-5-(((2-hydroxyethyl)amino)methyl)picolinamide] displayed an EC50 of 146 nM. The molecule also had a half-inhibitory concentration (IC50) in test [2] of 0.14 nM.

Molecule `COc1cc(-c2nccc(-c3cccc(NC(=O)c4ccc(CNC5CC6(C5)CN(C(C)=O)C6)cn4)c3Cl)c2Cl)ccc1CNC1CC2(C1)CN(C(C)=O)C2` (centres unmarked) [Example 706, 5-(((2-Acetyl-2-azaspiro[3.3]heptan-6-yl)amino)methyl)-N-(3-(2-(4-(((2-acetyl-2-azaspiro[3.3]heptan-6-yl)amino)methyl)-3-methoxyphenyl)-3-chloropyridin-4-yl)-2-chlorophenyl)picolinamide] registered an EC50 in test [1] of 72.6 nM. Besides, in test [2], inhibition was half-maximal at 0.2 nM (IC50).

As for `COc1nc(-c2ccnc(-c3cccc4c3CCC[C@@H]4Nc3nc(OC)c(CNC[C@H](C)O)cc3C(F)(F)F)c2Cl)ccc1CNC[C@@H]1CCC(=O)N1` [Example 707, (S)-5-((((3′-Chloro-2′-((S)-5-((5-((((S)-2-hydroxypropyl)amino)methyl)-6-methoxy-3-(trifluoromethyl)pyridin-2-yl)amino)-5,6,7,8-tetrahydronaphthalen-1-yl)-6-methoxy-[2,4′-bipyridin]-5-yl)methyl)amino)methyl)pyrrolidin-2-one], in test [1], the EC50 was at least 10000 nM. In test [2], half-maximal inhibition (IC50) was put at 54.3 nM.

Consider `COc1nc(-c2cccc(-c3ccnc(-c4cc(OC)c5nc(CNCC(C)(C)O)nn5c4)c3Cl)c2Cl)ccc1CNC1CCN(C(C)=O)CC1` [Example 714, 1-(4-(((6-(2-chloro-3-(3-chloro-2-(2-(((2-hydroxy-2-methylpropyl)amino)methyl)-8-methoxy-[1,2,4]triazolo[1,5-a]pyridin-6-yl)pyridin-4-yl)phenyl)-2-methoxypyridin-3-yl)methyl)amino)piperidin-1-yl)ethan-1-one], for which the midpoint of the response in test [1], the EC50, lay at 249 nM. Besides, in test [2], the IC50 was found to be 0.54 nM.

For `COc1cc(-c2ncnc(-c3cccc(-c4ccc(CNC[C@@H]5CCC(=O)N5)c(OC)n4)c3Cl)c2OC)ccc1CNC[C@@H]1CCC(=O)N1` [Example 716, (S)-5-((((6-(2-chloro-3-(5-methoxy-6-(3-methoxy-4-(((((S)-5-oxopyrrolidin-2-yl)methyl)amino)methyl)phenyl)pyrimidin-4-yl)phenyl)-2-methoxypyridin-3-yl)methyl)amino)methyl)pyrrolidin-2-one], in test [1], it took 940 nM to reach a half-maximal effect (EC50). The IC50 in test [2] was found to be 0.6 nM.

In the case of `COc1nc(-c2ccnc(-c3cccc4c3CCC[C@@H]4Nc3nc(OC)c(CN4CC5(CNC(=O)C5)C4)cc3C(F)(F)F)c2Cl)ccc1CNC[C@@H]1CCC(=O)N1` [Example 720, 2-((6-(((S)-5-(3′-Chloro-6-methoxy-5-(((((S)-5-oxopyrrolidin-2-yl)methyl)amino)methyl)-[2,4′-bipyridin]-2′-yl)-1,2,3,4-tetrahydronaphthalen-1-yl)amino)-2-methoxy-5-(trifluoromethyl)pyridin-3-yl)methyl)-2,6-diazaspiro[3.4]octan-7-one], in test [1], the EC50 is at least 10000 nM. Besides, in test [2], half-maximal inhibition (IC50) required 34.4 nM.

`COc1cc(-c2nccc(-c3cccc4c3CCC[C@@H]4Nc3nc(OC)c(CN4CC5(CNC(=O)C5)C4)cc3C(F)(F)F)c2Cl)ccc1CNC[C@@H]1CCC(=O)N1` [Example 724, 2-((6-(((S)-5-(3-Chloro-2-(3-methoxy-4-(((((S)-5-oxopyrrolidin-2-yl)methyl)amino)methyl)phenyl)pyridin-4-yl)-1,2,3,4-tetrahydronaphthalen-1-yl)amino)-2-methoxy-5-(trifluoromethyl)pyridin-3-yl)methyl)-2,6-diazaspiro[3.4]octan-7-one] came in with a 50% effective concentration (EC50) in test [1] of at least 10000 nM. Further, in test [2], the IC50 stood at 585 nM.

`Cc1c(NC(=O)c2ccc(CNC[C@@H]3CCC(=O)N3)cn2)cccc1-c1ccnc(-c2ccc(CNC[C@@H]3CCC(=O)N3)c(OC(F)F)c2)c1Cl` [Example 725, N-(3-(3-Chloro-2-(3-(difluoromethoxy)-4-(((((S)-5-oxopyrrolidin-2-yl)methyl)amino)methyl)phenyl)pyridin-4-yl)-2-methylphenyl)-5-(((((S)-5-oxopyrrolidin-2-yl)methyl)amino)methyl)picolinamide]: in test [1], the response was half-maximal at 120 nM (EC50). In test [2], this molecule had an IC50 of 0.53 nM.

The molecule `COc1cc(-c2nccc(-c3cccc(NC(=O)c4ccc(CNC[C@@H]5CCC(=O)N5)cn4)c3C)c2Cl)cc(F)c1CNC[C@@H]1CCC(=O)N1` [Example 726, N-(3-(3-Chloro-2-(3-fluoro-5-methoxy-4-(((((S)-5-oxopyrrolidin-2-yl)methyl)amino)methyl)phenyl)pyridin-4-yl)-2-methylphenyl)-5-(((((S)-5-oxopyrrolidin-2-yl)methyl)amino)methyl)picolinamide] came in with an EC50 in test [1] of 48.7 nM. Also, inhibition in test [2] was half-maximal at 0.42 nM (IC50).
